Tests used:
[1] = test system: DU145 cells; assay: Transferrin uptake (clathrin-dependent endocytosis) by flow cytometry; type: cell-based; set-up: dose or concentration left out as unconfirmed; conditions: for 30 min, transferrin-Alexa Fluor 488 for 30 min
Description: (§1) FIG. 9 are graphs showing the effects of inhibitors on various endocytic pathways. DU145 or Hs27 cells were plated 18 hr before uptake analysis. (Panel A) DU145 cells were pre-treated with dynamin inhibitor, […] Dynasore (black histogram) or DMSO (gray histogram) for 30 min at 37° C. After pre-treatment, cells were treated with […] transferrin conjugated with Alexa Fluor 488 for 30 min at 37° C. (Panel B) DU145 and Hs27 cells were pre-treated with 3 mM amiloride (black histogram) or vehicle (serum-free medium, gray histogram) for 1 h at 37° C. After pre-treatment, FL-CRO was added at a concentration of 10 μM and incubated at 37° C. for 2 h. After incubation, cells were harvested and analyzed by FACS. Gray solid histogram represents unstained cells.
To confirm that uptake of AS1411 occurs by endocytosis, the involvement of the actin cytoskeleton, which has been implicated in regulating endocytic pathways, was evaluated. To this end, DU145 and Hs27 cells were pre-treated with an actin polymerization inhibitor. 5 μM cytochalasin D, and assessed for FL-AS1411 uptake by flow cytometry. […]

[2] = test system: Hs27 cells; assay: Uptake of fluorophore-labeled oligonucleotides by flow cytometry; type: cell-based, human; conditions: 80 μM dynasore, then 10 μM FL-AS1411 2 h
Description: (§2) FIG. 1 are graphs showing that AS1411 cell internalization is an active process. Cells were plated 18 h before uptake analysis. After incubation as described, cells were washed with ice-cold PBS, incubated with 1 μg/ml 7-AAD, harvested and resuspended in 1% paraformaldehyde containing 2 μg/ml actinomycin D, then analyzed by flow cytometry. (Panel A) DU145 cells were incubated at 37° C. with fresh complete DMEM medium containing 10 μM FL-AS1411 (black line) or 10 μM FL-CRO (gray line) for the time indicated. (Panel B) DU145 cells were incubated for 2 h at 37° C. in complete or serum-free DMEM medium containing 10 μM FL-AS1411, or 10 μM FL-CRO, or no oligonucleotide. (Panel C) Various cell lines were incubated with 10 μM FL-AS1411 (black outline histogram), 10 μM FL-CRO (gray outline histogram) or without DNA (solid gray histogram) at 37° C. or 4° C. for 2 h. All experiments were repeated at least three times. Data are mean of three independent samples; bars, SE; *(p<0.05).
(§3) FIG. 2 are graphs showing that AS1411 is internalized by different endocytic mechanisms in DU145 cancer cells and in non-malignant Hs27 cells. DU145 or Hs27 cells were plated 18 h before uptake analysis. Cells were pre-treated as described with inhibitor (gray histogram) or the corresponding vehicle control (black histogram) before addition of 10 μM FL-AS1411 and incubation at 37° C. for 2 h. After incubation, cells were harvested and analyzed by flow cytometry. Pre-treatment conditions were at 37° C. with: (Panel A) 5 μM Cytochalasin D for 30 min; (Panel B) 80 μM Dynasore for 30 min; or (Panel C) 3 mM amiloride for 1 h. All experiments were repeated at least three times and representative data are shown. Solid gray histograms represent background autofluorescence of unstained cells.
as §1
To analyze uptake of the oligodeoxynucleotides or dextran-10K (macropinocytic marker) by flow cytometry, 2×10^5 cells in fresh supplemented culture medium (2.5 ml) were plated into 6-well plates for 18 h. […]

[3] = test system: DU145 cells; assay: as above; type: cell-based
Description: as §2, §3
DU145 cells were transfected for 48 h without siRNA (mock, M), or with 30 nM of one of three different nucleolin siRNAs (NCL1, NCL2, NCL3) or a control siRNA (scramble, S), or contransfected with 10 nM of each nucleolin siRNAs (mix). (Panel A) Cells were lysed and total cell lyses were analyzed by Western blotting using the antibodies shown. (Panel B) Cell-surface proteins from intact transfected DU145 cells were labeled covalently with membrane-impermeable biotinylating agent. Cells were lysed, then biotinylated plasma membrane proteins were captured with streptavidin-agarose beads and analyzed by blotting with anti-nucleolin antibody (upper panel). After stripping, the membrane was reprobed with antibodies for a plasma membrane marker (anti-pan Cadherin) and a nuclear marker (anti-histone 3) to confirm the fractionation. Total lysate (Lys) was used as control. (Panel C) The medium of transfected cells was replaced by fresh complete DMEM medium containing no oligonucleotide (gray dashed histogram) or 10 μM FL-CRO (gray solid line histogram) or 10 μM FL-AS1411 (black solid line histogram) and incubated at 37° C. for 2 h. After incubation, cells were harvested and analyzed by flow cytometry.
DU145 cells were plated 18 hr before uptake analysis. Cell medium was changed with fresh complete DMEM medium containing different concentrations of FL-AS1411 (black line) or FL-CRO (gray line), and incubated at 37° C. for 2 hrs. After incubation, cells were harvested and analyzed by flow cytometry.
as §1, with “Gray solid histogram represents unstained cells.” left out

[4] = test system: Hs27 cells; assay: Confocal microscopy localization and co-localization; type: cell-based, human; conditions: 10 μM, 0.2 mg/ml dextran-10K, 2 h at 37° C.
Description: (§4) FIG. 3 are photographs showing that AS1411 co-localizes with the macropinocytic marker, dextran. DU145 or Hs27 cells were incubated with the reagents indicated, then washed and fixed. Nuclei were stained with DAPI (blue). The distribution of markers was visualized by confocal microscopy and fluorescent images were overlaid to determine co-localization as indicated by the yellow color. (Panel A) 10 μM AS1411 labeled with Alexa Fluor 488 (green) and 0.2 mg/ml dextran-10K, macropinocytic marker, labeled with Alexa Fluor 594 (red) for 2 h at 37° C. (Panel B) Experiments similar to those in Panel A but using FL-CRO in place of FL-AS1411. (Panel C) Cells incubated with 5 μg/ml transferrin labeled with Alexa Fluor 488 (green) and 0.2 mg/ml dextran-10K labeled with Alexa Fluor 594 (red) for 30 min at 37° C. (Panel D) DU145 cells incubated with 5 μg/ml transferrin labeled with Alexa Fluor 594 (red) and 10 μM AS1411 labeled with Alexa Fluor 488 (green) for 30 min at 37° C. Scale bars, 10 μm.
Cells (4×10^4) in fresh supplemented culture medium were plated on 18 mm diameter glass cover slips for 18 h. The media was removed and replaced with serum-free medium containing 10 μM oligodeoxynucleotide, dextran-10K, or transferrin and incubated as describe in the Description of the Drawings. […]

[5] = test system: cancer cells (DU145, HeLa, MDA-MB-231) and non-malignant Hs27 skin fibroblasts; assay: Temperature-dependence of oligonucleotide uptake by flow cytometry; type: cell-based; conditions: 10 μM, 37° C. or 4° C. for 2 h, all cell types
Description: as §2, with “*(p<0.05). […]” for “*(p<0.05).”
To determine whether AS1411 uptake occurs through an active uptake process, the temperature-dependence of AS1411 uptake in cancer cells (DU145, HeLa, MDA-MB-231) and non-malignant Hs27 skin fibroblasts was evaluated using flow cytometry. […]

[6] = test system: DU145 cells; assay: Confocal microscopy localization and co-localization; type: cell-based
Description: as §4
Cells (4×10^4) in fresh supplemented culture medium were plated on 18 mm diameter glass cover slips for 18 h. The media was removed and replaced with serum-free medium containing 10 μM oligodeoxynucleotide, dextran-10K, or transferrin and incubated as describe in the Description of the Drawings. After incubation, cells were washed 3 times with ice-cold PBS, fixed in 4% paraformaldehyde in PBS for 30 min at room temperature, and washed three times with PBS. After washing, the cover slips were mounted on glass slides with ProLong Antifade (Molecular Probes) according to the manufacturer's directions to inhibit photobleaching. Immunofluorescence was documented with an LSM 510 inverted confocal laser-scanning microscope (Carl Zeiss, Oberkochen, Germany) equipped with an Omnichrome argon-krypton laser. Images were obtained with a Zeiss Plan-Apo 63× oil immersion objective (1.4 NA).

[7] = 10 μM, 37° C., complete DMEM medium

| Molecule | effect of pre-treatment on uptake of transferrin [1] | effect of pre-treatment on FL-AS1411 uptake [2] | effect of pre-treatment on FL-AS1411 uptake ([3]; 80 μM dynasore, then 10 μM FL-AS1411 2 h) | co-localization with the macropinocytic marker, dextran [4] | temperature dependence of uptake [5] | co-localization with the macropinocytic marker, dextran ([6]; 10 μM, 0.2 mg/ml dextran-10K, 2 h at 37° C.) | subcellular localization ([6]; confocal microscopy, cancer and non-malignant cells) | earliest time at which uptake was detected [3, 7] | time after which uptake is decreasing [3, 7] | serum dependence of uptake ([3]; 10 μM, 2 h at 37° C., complete or serum-free DMEM medium) |
| --- | --- | --- | --- | --- | --- | --- | --- | --- | --- | --- |
| O=C(N/N=C/c1ccc(O)c(O)c1)c1cc2ccccc2cc1O [dynasore] | inhibited | decreased the uptake of AS1411 | slightly increased the uptake of FL-AS1411 | – | – | – | – | – | – | – |
| 5′-Fluor-d(TTTGGTGGTGGTGGTTGTGGTGGTGGTGG) [FL-AS1411] | – | – | – | not in Hs27 cells | strong temperature dependence | strongly co-localized | localized in confined structures in the cytoplasm | 5 min | > 8 h | independent of the presence of serum |
